Laboratory results reported in article PMC3668096 (FEBS letters, 2012).
pIC50: −log10 of the molar value.

Tests used:
B. subtilis BshA = B. subtilis BshA (Bacillus subtilis, UniProt P42982); experiment: HPLC detection of UDP release at […] nm; format: biochemical
MshA = target: T1, MshA (Mycolicibacterium smegmatis, UniProt A0QQZ8); experiment: MshA glycosyltransferase assay; format: biochemical; conditions: 1 mM UDP-GlcNAc, 1 mM 1-L-inositol-1-phosphate
T1 sequence (A0QQZ8 1-434): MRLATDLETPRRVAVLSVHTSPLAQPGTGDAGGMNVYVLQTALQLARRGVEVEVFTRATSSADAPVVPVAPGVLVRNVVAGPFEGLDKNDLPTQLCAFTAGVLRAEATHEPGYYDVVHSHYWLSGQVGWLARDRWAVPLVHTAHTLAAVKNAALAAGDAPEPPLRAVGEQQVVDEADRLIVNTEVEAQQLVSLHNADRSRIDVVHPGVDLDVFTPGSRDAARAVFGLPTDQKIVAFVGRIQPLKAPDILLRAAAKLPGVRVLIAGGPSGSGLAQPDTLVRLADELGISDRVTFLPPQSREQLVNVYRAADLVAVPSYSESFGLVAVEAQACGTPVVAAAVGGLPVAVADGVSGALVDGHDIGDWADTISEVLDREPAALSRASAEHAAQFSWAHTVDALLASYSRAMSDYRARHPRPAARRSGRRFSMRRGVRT

B. subtilis BshA, sequence (P42982 whole entry): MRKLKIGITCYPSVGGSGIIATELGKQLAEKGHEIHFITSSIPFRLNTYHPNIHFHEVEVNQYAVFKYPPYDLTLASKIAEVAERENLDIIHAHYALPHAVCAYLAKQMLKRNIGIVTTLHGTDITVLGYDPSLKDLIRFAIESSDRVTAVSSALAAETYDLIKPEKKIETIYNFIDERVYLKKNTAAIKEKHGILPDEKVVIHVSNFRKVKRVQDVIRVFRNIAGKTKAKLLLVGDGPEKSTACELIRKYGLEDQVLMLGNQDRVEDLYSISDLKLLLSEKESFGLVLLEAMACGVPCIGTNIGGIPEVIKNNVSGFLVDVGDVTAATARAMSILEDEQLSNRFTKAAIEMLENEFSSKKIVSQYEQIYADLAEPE

## N[C@@H](CS)C(=O)N[C@H]1[C@@H](O[C@@H](CC(=O)O)C(=O)O)O[C@H](CO)[C@@H](O)[C@@H]1O [BSH, bacillithiol]
B. subtilis BshA
  pIC50: 3.15

## CC(=O)N[C@@H](CS)C(=O)NC1[C@@H](O[C@@H]2[C@H](O)[C@H](O)[C@@H](O)[C@H](O)[C@H]2O)O[C@H](CO)[C@@H](O)[C@@H]1O (stereo partly drawn) [MSH, mycothiol]
MshA; preincubated with MSH, feedback inhibition
  pIC50: 2.44

## CC(=O)N[C@H]1[C@@H](OP(=O)(O)OP(=O)(O)OC[C@H](C=O)OC(C=O)n2ccc(=O)[nH]c2=O)O[C@H](CO)[C@@H](O)[C@@H]1O (stereo partly drawn) [O-UDP-GlcNAc, 2’,3’-dialdehydo-UDP-N-acetylglucosamine]
MshA; preincubated with inhibitor
  pIC50: 3.70
